≈ marks a conversion by molar mass, not a printed value. Where two headings read alike, the source gives them in different places.
Assays:
[1] = system: T1, C. albicans 5 strains; experiment: microbe, parasite or virus in culture; design: species or system clinical Candida isolates; broth microdilution antifungal MIC, visual growth inhibition, CLSI; details: Candida albicans, 24 h, read-out: Tested Fungi (MIC Values μg/mL) / C. albicans 5 strains
T1 construct: 5 clinical isolates
Experimental: (§1) The in vitro antifungal activities were determined by the broth microdilution method with sabouraud dextrose broth (BBL Microbiology Systems, Cockeysville, MD, USA), as recommended by the by the CLSI [43]. Ninety-six-well polystyrene microtitre plates containing serial dilutions of each compound were inoculated with each microorganism to yield the appropriate density (1–5 × 10^3 cells/mL) in a 100-μL final volume. Each plate included (i) fungi without the addition of the compound, (ii) just the medium, and (iii) just the compound. Topical and systemic antifungal reference drugs, clotrimazole and fluconazole, were inserted in the experiment. The plates were incubated for 24 h at 35 °C. […] Three independent experiments were performed in triplicate. The antimicrobial activity of these thiazolidinones was evaluated versus 24 clinical Gram-positive (S. aureus and S. epidermidis) and Gram-negative (E. coli and Enterobacter spp.) microorganisms. The antifungal activity of these derivatives was then tested versus 16 clinical fungal isolates belonging to the most relevant Candida spp. (C. albicans, C. tropicalis, C. parapsilosis, C. sakè, and C. glabrata). Prior to testing, each isolate was cultured on a selective medium to ensure purity and optimal growth, as previously reported. The isolates were routinely identified by the morphological aspects of colonies and by biochemical identification. The used clinical isolates were collected from specimens of patients at the ‘Azienda Policlinico Umberto I’ (Sapienza University of Rome) and were obtained from hematology/oncology and surgery departments, which also included an intensive care unit. In particular, the samples were isolated from the upper and lower respiratory tract, blood, and indwelling venous catheters; the isolates were identified by conventional methodologies. Participating subjects gave their written informed consent for this study.

[2] = system: T2, Candida sake C. sakè 3 strains; experiment: microbe, parasite or virus in culture; design: species or system clinical Candida isolates; broth microdilution antifungal MIC, visual growth inhibition, CLSI; details: Fermentozyma sake, 24 h; read-out: Tested Fungi (MIC Values μg/mL) / C. sakè 3 strains
T2 construct: 3 clinical isolates
Experimental: as §1

[3] = system: T3, C. glabrata 3 strains; experiment: microbe, parasite or virus in culture; design: species or system clinical Candida isolates; broth microdilution antifungal MIC, visual growth inhibition, CLSI; details: Nakaseomyces glabratus, 24 h, read-out: Tested Fungi (MIC Values μg/mL) / C. glabrata 3 strains
T3 construct: 3 clinical isolates
Experimental: as §1

[4] = target: T4, hCA I (Homo sapiens, UniProt P00915); experiment: stopped-flow CO2 hydrase assay; assay type: biochemical
T4 construct: gene CA1; recombinant, obtained in-house as previously reported
Excerpt: stopped-flow CO2 hydrase assay on hCA I

[5] = target: T5, CgNce103 (Nakaseomyces glabratus, UniProt Q6FTL6); experiment: stopped-flow CO2 hydrase assay; assay type: biochemical
T5 construct: gene NCE103; recombinant, obtained in-house as previously reported; beta-class zinc enzyme
T5 sequence (Q6FTL6 1-219): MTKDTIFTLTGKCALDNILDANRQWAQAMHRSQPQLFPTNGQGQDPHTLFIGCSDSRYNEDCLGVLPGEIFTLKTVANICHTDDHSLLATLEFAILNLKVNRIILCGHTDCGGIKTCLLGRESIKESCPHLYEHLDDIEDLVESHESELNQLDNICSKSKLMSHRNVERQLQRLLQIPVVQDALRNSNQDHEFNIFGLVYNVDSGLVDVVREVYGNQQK

[6] = target: T6, hCA II (Homo sapiens, UniProt P00918); experiment: stopped-flow CO2 hydrase assay; assay type: biochemical
T6 construct: gene CA2; recombinant, obtained in-house as previously reported
Excerpt: stopped-flow CO2 hydrase assay on hCA II

[7] = system: T7, C. tropicalis 3 strains; experiment: microbe, parasite or virus in culture; design: species or system clinical Candida isolates; CLSI broth microdilution MIC, Sabouraud dextrose broth, 35 °C, visual complete growth inhibition; details: Candida tropicalis, 24 h, read-out: Tested Fungi (MIC Values μg/mL) / C. tropicalis 3 strains
T7 construct: 3 clinical isolates
Experimental: as §1

[8] = system: T8, C. parapsilosis 2 strains; experiment: microbe, parasite or virus in culture; design: species or system clinical Candida isolates; CLSI broth microdilution MIC, Sabouraud dextrose broth, 35 °C, visual complete growth inhibition; details: Lodderomyces parapsilosis, 24 h, read-out: Tested Fungi (MIC Values μg/mL) / C. parapsilosis 2 strains
T8 construct: 2 clinical isolates
Experimental: as §1

[9] = stopped-flow CO2 hydrase assay; assay type: biochemical, Homo sapiens; details: read-out: hCA I
[10] = system: T7, C. tropicalis 3 strains; experiment: microbe, parasite or virus in culture; design: species or system clinical Candida isolates; broth microdilution antifungal MIC, visual growth inhibition, CLSI; details: Candida tropicalis, 24 h, read-out: Tested Fungi (MIC Values μg/mL) / C. tropicalis 3 strains
Experimental: as §1

[11] = system: T2, Candida sake C. sakè 3 strains; experiment: microbe, parasite or virus in culture; design: species or system clinical Candida isolates; CLSI broth microdilution MIC, Sabouraud dextrose broth, 35 °C, visual complete growth inhibition; details: Fermentozyma sake, 24 h; read-out: Tested Fungi (MIC Values μg/mL) / C. sakè 3 strains
Experimental: as §1

[12] = system: T3, C. glabrata 3 strains; experiment: microbe, parasite or virus in culture; design: species or system clinical Candida isolates; CLSI broth microdilution MIC, Sabouraud dextrose broth, 35 °C, visual complete growth inhibition; details: Nakaseomyces glabratus, 24 h, read-out: Tested Fungi (MIC Values μg/mL) / C. glabrata 3 strains
Experimental: as §1

T4 sequence (P00915 2-261): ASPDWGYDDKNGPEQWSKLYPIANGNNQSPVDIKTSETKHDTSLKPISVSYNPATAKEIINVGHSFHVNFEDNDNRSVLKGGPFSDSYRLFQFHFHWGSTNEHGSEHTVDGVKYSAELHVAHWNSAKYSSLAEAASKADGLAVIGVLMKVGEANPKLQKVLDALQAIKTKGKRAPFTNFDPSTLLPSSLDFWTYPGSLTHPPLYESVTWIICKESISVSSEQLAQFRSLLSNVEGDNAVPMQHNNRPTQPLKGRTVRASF

Structure (SMILES)	MIC [1]	MIC [2]	MIC [3]	Ki [4]	Ki [5]	Ki [6]	MIC [7]	MIC [8]	Ki [9]	MIC [10]	MIC [11]	MIC [12]
Cc1cccc(N2C(=O)CS/C2=N\NC(=O)C(O)c2ccccc2)c1 (centres unmarked) [3k]	8 to 32 µg/mL (≈ 22.5 to 90 µM)	8 to 32 µg/mL (≈ 22.5 to 90 µM)	8 to 32 µg/mL (≈ 22.5 to 90 µM)	> 100 µM	0.41 µM	79.3 µM	32 µg/mL (≈ 90 µM)	16 µg/mL (≈ 45 µM)	–	–	–	–
O=C(N/N=C1\SCC(=O)N1c1cccc(C(F)(F)F)c1)C(O)c1ccccc1 (centres unmarked) [3o]	16 to 32 µg/mL (≈ 39.1 to 78.2 µM)	4 to 8 µg/mL (≈ 9.77 to 19.5 µM)	4 to 8 µg/mL (≈ 9.77 to 19.5 µM)	> 100 µM	0.12 µM	82.8 µM	32 µg/mL (≈ 78.2 µM)	32 µg/mL (≈ 78.2 µM)	–	–	–	–
Cc1ccc(N2C(=O)CS/C2=N\NC(=O)C(O)c2ccccc2)cc1 (centres unmarked) [3l]	8 to 32 µg/mL (≈ 22.5 to 90 µM)	8 to 32 µg/mL (≈ 22.5 to 90 µM)	8 to 32 µg/mL (≈ 22.5 to 90 µM)	> 100 µM	6.3 µM	–	32 µg/mL (≈ 90 µM)	32 µg/mL (≈ 90 µM)	> 100 µM	–	–	–
Cc1cccc(N2C(=O)C(C)S/C2=N\NC(=O)C(O)c2ccccc2)c1 (centres unmarked) [4g]	4 to 16 µg/mL (≈ 10.8 to 43.3 µM)	4 to 8 µg/mL (≈ 10.8 to 21.7 µM)	4 to 8 µg/mL (≈ 10.8 to 21.7 µM)	> 100 µM	0.5 µM	–	–	32 µg/mL (≈ 86.6 µM)	> 100 µM	4 to 8 µg/mL (≈ 10.8 to 21.7 µM)	–	–
O=C(N/N=C1\SCC(=O)N1c1cccc(F)c1)C(O)c1ccccc1 (centres unmarked) [3b]	4 to 8 µg/mL (≈ 11.1 to 22.3 µM)	–	–	> 100 µM	0.48 µM	–	32 µg/mL (≈ 89 µM)	32 µg/mL (≈ 89 µM)	> 100 µM	–	16 µg/mL (≈ 44.5 µM)	16 µg/mL (≈ 44.5 µM)
O=C(N/N=C1\SCC(=O)N1c1ccccc1Cl)C(O)c1ccccc1 (centres unmarked) [3d]	8 to 32 µg/mL (≈ 21.3 to 85.1 µM)	8 to 32 µg/mL (≈ 21.3 to 85.1 µM)	8 to 32 µg/mL (≈ 21.3 to 85.1 µM)	> 100 µM	0.32 µM	–	32 µg/mL (≈ 85.1 µM)	32 µg/mL (≈ 85.1 µM)	> 100 µM	–	–	–
CC1S/C(=N\NC(=O)C(O)c2ccccc2)N(c2cccc(F)c2)C1=O (centres unmarked) [4a]	16 to 32 µg/mL (≈ 42.8 to 85.7 µM)	4 to 8 µg/mL (≈ 10.7 to 21.4 µM)	8 to 32 µg/mL (≈ 21.4 to 85.7 µM)	> 100 µM	0.11 µM	–	–	8 µg/mL (≈ 21.4 µM)	> 100 µM	8 to 32 µg/mL (≈ 21.4 to 85.7 µM)	–	–
COc1ccc(N2C(=O)CS/C2=N\NC(=O)C(O)c2ccccc2)cc1 (centres unmarked) [3m]	8 to 32 µg/mL (≈ 21.5 to 86.2 µM)	8 to 32 µg/mL (≈ 21.5 to 86.2 µM)	8 to 32 µg/mL (≈ 21.5 to 86.2 µM)	> 100 µM	0.39 µM	–	32 µg/mL (≈ 86.2 µM)	32 µg/mL (≈ 86.2 µM)	> 100 µM	–	–	–
CC1S/C(=N\NC(=O)C(O)c2ccccc2)N(c2ccc(Br)cc2)C1=O (centres unmarked) [4f]	4 to 16 µg/mL (≈ 9.21 to 36.8 µM)	4 to 8 µg/mL (≈ 9.21 to 18.4 µM)	4 to 8 µg/mL (≈ 9.21 to 18.4 µM)	> 100 µM	0.11 µM	–	–	32 µg/mL (≈ 73.7 µM)	> 100 µM	4 to 8 µg/mL (≈ 9.21 to 18.4 µM)	–	–
Cc1ccc(N2C(=O)C(C)S/C2=N\NC(=O)C(O)c2ccccc2)cc1 (centres unmarked) [4h]	8 to 32 µg/mL (≈ 21.7 to 86.6 µM)	8 to 32 µg/mL (≈ 21.7 to 86.6 µM)	8 to 32 µg/mL (≈ 21.7 to 86.6 µM)	> 100 µM	0.09 µM	–	16 µg/mL (≈ 43.3 µM)	32 µg/mL (≈ 86.6 µM)	> 100 µM	–	–	–
O=C(N/N=C1\SCC(=O)N1c1ccc(Br)cc1)C(O)c1ccccc1 (centres unmarked) [3i]	8 to 16 µg/mL (≈ 19 to 38.1 µM)	–	4 to 8 µg/mL (≈ 9.52 to 19 µM)	> 100 µM	0.87 µM	47.4 µM	16 µg/mL (≈ 38.1 µM)	16 µg/mL (≈ 38.1 µM)	–	–	16 µg/mL (≈ 38.1 µM)	–
CC1S/C(=N\NC(=O)C(O)c2ccccc2)N(c2cccc(Cl)c2)C1=O (centres unmarked) [4c]	16 to 32 µg/mL (≈ 41 to 82.1 µM)	4 to 8 µg/mL (≈ 10.3 to 20.5 µM)	8 to 32 µg/mL (≈ 20.5 to 82.1 µM)	> 100 µM	0.12 µM	–	–	8 µg/mL (≈ 20.5 µM)	> 100 µM	8 to 32 µg/mL (≈ 20.5 to 82.1 µM)	–	–
O=C(N/N=C1\SCC(=O)N1c1ccc(Cl)cc1)C(O)c1ccccc1 (centres unmarked) [3f]	4 to 8 µg/mL (≈ 10.6 to 21.3 µM)	–	4 to 8 µg/mL (≈ 10.6 to 21.3 µM)	> 100 µM	0.51 µM	62.9 µM	32 µg/mL (≈ 85.1 µM)	16 µg/mL (≈ 42.6 µM)	–	–	16 µg/mL (≈ 42.6 µM)	–
